Key:
HSP90a protein [1] = target: T1, HSP90a protein (Homo sapiens, UniProt P07900); test: HSP90α-binding fluorescent polarization (FP) assay, FITC-geldanamycin probe; settings: FP competition with FITC-geldanamycin, 5 nM, 120 min at 25° C.
T1 construct: purchased BPS Bioscience 50298
Method: HSP90α-Binding Fluorescent Polarization (FP) Assay
Binding of test compounds to HSP90a protein was measured by fluorescent polarization (FP) using the HSP90a (N-terminal) Assay Kit (BPS Bioscience, #50298), following the manufacturer's instructions, except as noted. Fluorescently labeled HSP90-binding compounds, either the provided FITC-geldanamycin (5 nM final concentration) or RNK04010, a triazolone-based HSP90 binding small molecule labeled with BODIPY through a piperizine-phenyl linker (5 nM final concentration) were employed. A 2.5-fold serial dilution of each test compound ranging from 20 μM to 5.2 nM was assayed for binding to HSP90a. After the final step of adding HSP90a protein to each assay well, plates were mixed by brief shaking, incubated at 25° C. for 120 min for FITC-geldanamycin or 300 min for RNK04010, and fluorescence was measured using a PerkinElmer EnVision Plate Reader.

[2] = tested on: MIA PaCa-2 human pancreatic carcinoma; test: MIA PaCa-2 CCK-8 proliferation assay; assay type: cell-based; settings: Homo sapiens, MIA PaCa-2, 72 h, MIA PaCa-2 cells
In short: (§1)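 MIA PaCa-2 (2 copies KRAS(G12C)), NCI-H358 and NCI-H23 (1 copy KRAS(G12C) each) were exposed to compound in 3-fold serial dilutions from 20 μM to 1.02 nM. Viability was read as CCK-8 absorbance, and % inhibition was computed against DMSO-treated cells, with cell-free DMSO medium as blank.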

HSP90a protein [3] = target: T1, HSP90a protein; test: HSP90α-binding fluorescent polarization (FP) assay, BODIPY-labeled RNK04010 probe; settings: FP competition with RNK04010 (BODIPY-labeled), 5 nM, 300 min at 25° C.
In short: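 N-terminal HSP90a construct; tracer 5 nM final (FITC-geldanamycin or BODIPY-RNK04010, a labeled triazolone binder). Compounds 20 μM–5.2 nM, 2.5-fold steps. 25° C, 120 min (FITC) / 300 min (BODIPY). FP readout.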

KRAS(G12C) [4] = target: T2, KRAS(G12C) (Homo sapiens, UniProt P01116, G12C); test: KRAS(G12C)/SOS1 homogeneous time-resolved fluorescence (HTRF) assay; parameters: purchased Cisbio 63ADK000CB16PEG; settings: absence of GTP, 4° C. for 3 hr, read-out: KRAS (G12C) binding
In short: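 Three-hour incubation at 4 °C of 3-fold compound dilutions (lowest 1.02 nM) with KRAS(G12C), SOS1 and detection reagents, GTP absent. Disruption of the KRAS(G12C)/SOS1 complex detected by time-resolved fluorescence.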

KRAS(G12C) [5] = target: T2, KRAS(G12C); test: KRAS(G12C) Western blot protein degradation assay in MIA PaCa-2 cells; assay type: cell-based; parameters: host or cells: LU65A; settings: 48 hr
Method: The following cancer cell lines were employed: BT-474 human breast carcinoma (ATCC, #HTB-20); MIA PaCa-2 human pancreatic carcinoma [2 copies KRAS(G12C)](ATCC, #CRL-1420); NCI-H23 human non-small cell lung cancer [1 copy KRAS(G12C)](ATCC, #CRL-5800); NCI-H358 human non-small cell lung cancer [1 copy KRAS(G12C)](ATCC, #CRL-5807); LU65A human lung carcinoma (Pharmaron, Beijing, China). Cell lines were cultured essentially according to ATCC and Pharmaron recommendations.
KRAS(G12C) Western Blot Protein Degradation Assay
The MIA PaCa-2 human pancreatic carcinoma cell line and LU65A human lung cancer cell line, which expresses KRAS(G12C), were seeded in 6- or 12-well tissue culture plates, and after 1 hr, test compounds were added at various concentrations and incubated at 37° C./5% CO2 for 48 hr (MIA Paca-2) and 6 hr (LU65A) respectively. Cells were then washed with cold PBS, aspirated and cold RIPA buffer containing a protease/phosphatase inhibitor cocktail was added to lyse cells. After centrifugation, the total protein concentrations of cell lysates were determined using the BCA protein assay. Samples were normalized for equivalent protein concentrations, 5×SDS-PAGE loading buffer added and denatured at 100° C. for 10 min. 20 μl of each sample/well was loaded on a SDS-PAGE gel and electrophoresed for 20 min at 80 V, then 120 V for 1.5 hr. Gels were then electroblotted to nitrocellulose membranes using a wet-transfer method at 250 mA for 2.5 hr. Membranes were incubated with blocking buffer for 1 hr and washed 3 times with TBST for 5 min. Membranes were then incubated with anti-KRAS (Sigma-Aldrich, #SAB1404011) and anti-β-Actin monoclonal antibodies (Cell Signaling Technology, #3700) diluted in blocking buffer at 4° C. overnight per the manufacturer's recommendations. After washing 3 times, blots were incubated with appropriately labeled secondary antibodies for 1 hr at room temperature and washed again. Fluorescence imaging and quantitation was performed using a LI-COR Odyssey. Results was analyzed using GraphPad Prism 7 software. Compound degradation of was determined by the following equation and DC50 values (the concentration at which 50% of the maximal degradation of KRAS occurs) calculated using GraphPad Prism 7 software:
% Inhibition=100−(D−B)/(S−B)*100%. • S: Fluorescence intensity of cells with antibody • D: Fluorescence intensity of compound-treated cells with antibody • B: Fluorescence intensity of cells without antibody

[6] = tested on: NCI-H358 human non-small cell lung cancer; test: NCI-H358 CCK-8 proliferation assay; assay type: cell-based; settings: NCI-H358 cells, 72 hr
In short: as §1

[7] = tested on: NCI-H23 human non-small cell lung cancer; test: NCI-H23 CCK-8 proliferation assay; assay type: cell-based; settings: NCI-H23 cells, 72 hr
In short: as §1

T2 sequence (P01116 1-188 isoform P01116-2 G12C): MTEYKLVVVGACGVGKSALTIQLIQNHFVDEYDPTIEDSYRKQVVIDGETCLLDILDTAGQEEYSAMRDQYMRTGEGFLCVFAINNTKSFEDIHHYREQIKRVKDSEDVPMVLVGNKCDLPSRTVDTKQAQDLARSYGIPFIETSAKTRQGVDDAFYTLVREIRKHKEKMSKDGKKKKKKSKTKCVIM

Compound C=C(F)C(=O)N1CCN(c2nc(OC[C@@H]3CCN(C(=O)C4CCN(Cc5ccc(-n6c(O)nnc6-c6cc(CC)c(O)cc6O)cc5)CC4)C3)nc3c2CCN(c2cccc4cccc(Cl)c24)C3)C[C@@H]1CC#N [Compound 167, 2-((S)-4-(7-(8-chloronaphthalen-1-yl)-2-(((R)-1-(1-(4-(3-(5-ethyl-2,4-dihydroxyphenyl)-5-hydroxy-4H-1,2,4-triazol-4-yl)benzyl)piperidine-4-carbonyl)pyrrolidin-3-yl)methoxy)-5,6,7,8-tetrahydropyrido[3,4-d]pyrimidin-4-yl)-1-(2-fluoroacryloyl)piperazin-2-yl)acetonitrile] has an IC50 (HSP90a protein [1]) of less than 100 nM and an EC50 [2] of 100 to 1000 nM.

C=C(F)C(=O)N1CCN(c2nc(OC[C@@H]3CCN(C(=O)c4cc(CC)c(O)cc4O)C3)nc3c2CCN(c2cccc4cccc(Cl)c24)C3)C[C@@H]1CC#N [Compound 174, 2-((S)-4-(7-(8-chloronaphthalen-1-yl)-2-(((R)-1-(5-ethyl-2,4-dihydroxybenzoyl)pyrrolidin-3-yl)methoxy)-5,6,7,8-tetrahydropyrido[3,4-d]pyrimidin-4-yl)-1-(2-fluoroacryloyl)piperazin-2-yl)acetonitrile] showed an IC50 (HSP90a protein [3]) greater than 1000 nM, an IC50 (HSP90a protein [1]) greater than 1000 nM and an EC50 [2] greater than 1000 nM.

C=C(F)C(=O)N1CCN(c2nc(OC[C@@H]3CCN(CCCOCCC(=O)NCc4ccc(-n5c(O)nnc5-c5cc(C(C)C)c(O)cc5O)cc4)C3)nc3c2CCN(c2cccc4cccc(Cl)c24)C3)C[C@@H]1CC#N [Compound 170] was tested, and the IC50 (HSP90a protein [1]) was 100 to 1000 nM and the EC50 [2] was greater than 1000 nM.

For C=CC(=O)N1CCN(c2nc(OC[C@@H]3CCN(C(=O)c4ccc5c(c4)CN(C(=O)c4cc(C(C)C)c(OC)cc4O)C5)C3)nc3c2CCN(c2cccc4cccc(Cl)c24)C3)C[C@@H]1CC#N [Compound 173, 2-((S)-1-acryloyl-4-(7-(8-chloronaphthalen-1-yl)-2-(((R)-1-(2-(2-hydroxy-5-isopropyl-4-methoxybenzoyl)isoindoline-5-carbonyl)pyrrolidin-3-yl)methoxy)-5,6,7,8-tetrahydropyrido[3,4-d]pyrimidin-4-yl)piperazin-2-yl)acetonitrile], the IC50 (HSP90a protein [3]) was greater than 1000 nM, the IC50 (HSP90a protein [1]) was greater than 1000 nM and the EC50 [2] was greater than 1000 nM.

Compound C=C(F)C(=O)N1CCN(c2nc(OC[C@@H]3CCN(C(=O)c4cc(C(C)C)c(O)cc4O)C3)nc3c2CCN(c2cccc4cccc(Cl)c24)C3)C[C@@H]1CC#N [Compound 171, 2-((S)-4-(7-(8-chloronaphthalen-1-yl)-2-(((R)-1-(2,4-dihydroxy-5-isopropylbenzoyl)pyrrolidin-3-yl)methoxy)-5,6,7,8-tetrahydropyrido[3,4-d]pyrimidin-4-yl)-1-(2-fluoroacryloyl)piperazin-2-yl)acetonitrile] has an IC50 (HSP90a protein [1]) greater than 1000 nM and an EC50 [2] greater than 1000 nM.

C=C(F)C(=O)N1CCN(c2nc(OC[C@@H]3CCN(C(=O)c4ccc5c(c4)CN(C(=O)c4cc(C(C)C)c(O)cc4O)C5)C3)nc3c2CCN(c2cccc4cccc(Cl)c24)C3)C[C@@H]1CC#N [Compound 165, 2-((S)-4-(7-(8-chloronaphthalen-1-yl)-2-(((R)-1-(2-(2,4-dihydroxy-5-isopropylbenzoyl)isoindoline-5-carbonyl)pyrrolidin-3-yl)methoxy)-5,6,7,8-tetrahydropyrido[3,4-d]pyrimidin-4-yl)-1-(2-fluoroacryloyl)piperazin-2-yl)acetonitrile] showed an IC50 (HSP90a protein [1]) of 100 to 1000 nM and an EC50 [2] greater than 1000 nM.

C=CC(=O)N1CCN(c2nc(NCCC(=O)N3CCC(Cc4ccc(CN(C)Cc5ccc(-n6c(C(=O)NCC(F)(F)F)nnc6-c6cc(C(C)C)c(O)cc6O)cc5)cc4)CC3)nc3c2CCN(c2cc(O)cc4ccccc24)C3)CC1 [Compound 16, 4-(4-(((4-((1-(3-((4-(4-acryloylpiperazin-1-yl)-7-(3-hydroxynaphthalen-1-yl)-5,6,7,8-tetrahydropyrido[3,4-d]pyrimidin-2-yl)amino)propanoyl)piperidin-4-yl)methyl)benzyl)(methyl)amino)methyl)phenyl)-5-(2,4-dihydroxy-5-isopropylphenyl)-N-(2,2,2-trifluoroethyl)-4H-1,2,4-triazole-3-carboxamide, trifluoroacetic acid] gave an IC50 (HSP90a protein [3]) greater than 1000 nM, an IC50 (KRAS(G12C) [4]) greater than 1000 nM and an inhibition at 0.1562 µM (KRAS(G12C) [5]; 156.2 nM) of less than 33%. It also gave an inhibition at 0.3125 µM (KRAS(G12C) [5]; 312.5 nM) of less than 33%, an inhibition at 0.625 µM (KRAS(G12C) [5]; 625 nM) of less than 33% and an inhibition at 1.25 µM (KRAS(G12C) [5]; 1250 nM) of less than 33%. For the same compound, the inhibition at 2.5 µM (KRAS(G12C) [5]; 2500 nM) was less than 33%, the inhibition at 5 µM (KRAS(G12C) [5]; 5000 nM) was less than 33% and the inhibition at 10 µM (KRAS(G12C) [5]; 10,000 nM) was less than 33%. It also gave an EC50 [2] of less than 100 nM, an EC50 [6] of 100 to 1000 nM and an EC50 [7] of 100 to 1000 nM.

Work on C=C(F)C(=O)N1CCN(c2nc(OC[C@@H]3CCN(C(=O)C4CCN(Cc5ccc(-n6c(C(N)=O)nnc6-c6cc(C(C)C)c(O)cc6O)cc5)CC4)C3)nc3c2CCN(c2cccc4cccc(Cl)c24)C3)C[C@@H]1CC#N [Compound 166, 4-(4-((4-((R)-3-(((7-(8-chloronaphthalen-1-yl)-4-((S)-3-(cyanomethyl)-4-(2-fluoroacryloyl)piperazin-1-yl)-5,6,7,8-tetrahydropyrido[3,4-d]pyrimidin-2-yl)oxy)methyl)pyrrolidine-1-carbonyl)piperidin-1-yl)methyl)phenyl)-5-(2,4-dihydroxy-5-isopropylphenyl)-4H-1,2,4-triazole-3-carboxamide] yielded an IC50 (HSP90a protein [1]) of 100 to 1000 nM and an EC50 [2] of less than 100 nM.

CC(C)c1cc(-c2nnc(O)n2-c2ccc(CN3CCC(C(=O)N4CC[C@@H](COc5nc6c(c(N7CCN(C(N)=O)[C@@H](CC#N)C7)n5)CCN(c5cccc7cccc(Cl)c57)C6)C4)CC3)cc2)c(O)cc1O [Compound 169, (S)-4-(7-(8-chloronaphthalen-1-yl)-2-(((R)-1-(1-(4-(3-(2,4-dihydroxy-5-isopropylphenyl)-5-hydroxy-4H-1,2,4-triazol-4-yl)benzyl)piperidine-4-carbonyl)pyrrolidin-3-yl)methoxy)-5,6,7,8-tetrahydropyrido[3,4-d]pyrimidin-4-yl)-2-(cyanomethyl)piperazine-1-carboxamide] showed an IC50 (HSP90a protein [1]) of less than 100 nM and an EC50 [2] of 100 to 1000 nM.
